Counter-ions that a name gives are not always drawn. Where a SMILES comes first, the peptide text is derived from it. [ ]: non-standard residue; d: D form. pGlu = O=C1CC[C@@H](C(=O)O)N1; Thz = O=C(O)[C@@H]1CSCN1
These molecules were tested on NRG1-ERBB4 signaling (assay: Nrg1-ERBB4-PIK3R1 split TEV co-culture compound screen of the NIH Clinical Collection). Details: NIH Clinical Collection NCC-003 raw data; compounds ranked by Z-score; 'flagged' given instead of a Z-score.
Assay type: cell-based, human

**Q.** Which Z-SCORE does the source give for Clc1ccc(CO/N=C(\Cn2ccnc2)c2ccc(Cl)cc2Cl)c(Cl)c1 [OXICONAZOLE NITRATE] here?
**A.** The Z-SCORE was -1.71.

**Q.** Which Z-SCORE does the source give for Cl.O=C1[C@H]2CCCC[C@H]2C(=O)N1CCCCN1CCN(c2nsc3ccccc23)CC1 [PEROSPIRONE HCl] here?
**A.** The Z-SCORE was -1.42.

**Q.** With O=C1CC[C@@H](C(=O)N2CSC[C@H]2C(=O)O)N1 [PIDOTIMOD] ([pGlu]-[Thz]-OH) as the molecule, how does the Z-SCORE read?
**A.** Its Z-SCORE is -1.2.

**Q.** Which Z-SCORE does the source give for CC(=O)[C@H]1CC[C@H]2[C@@H]3CCC4=CC(=O)CC[C@]4(C)[C@H]3CC[C@]12C [PROGESTERONE] here?
**A.** Its Z-SCORE is -1.2.

Same assay, conditions: compound screen of the NIH Clinical Collection, sheet raw data NCC-003; compounds ranked by Z-score

**Q.** Which Z-SCORE does the source give for Cc1cc2c(s1)Nc1ccccc1N=C2N1CCN(C)CC1 [OLANZAPINE] here?
**A.** Its Z-SCORE is -0.89.

**Q.** With CCCc1nc(C(C)(C)O)c(C(=O)OCc2oc(=O)oc2C)n1Cc1ccc(-c2ccccc2-c2nnn[nH]2)cc1 [OLMESARTAN MEDOXOMIL] as the molecule, how does the Z-SCORE read?
**A.** The Z-SCORE was 0.84.

**Q.** For CN(C)CC/C=C1/c2ccccc2COc2ccc(CC(=O)O)cc21 [OLOPATADINE HCl], which Z-SCORE is on record?
**A.** The Z-SCORE was 0.55.

**Q.** How did the Z-SCORE turn out when COc1ccc2[nH]c([S+]([O-])Cc3ncc(C)c(OC)c3C)nc2c1 (centres unmarked) [OMEPRAZOLE] was run?
**A.** The Z-SCORE was -0.26.

**Q.** Which Z-SCORE does the source give for Cc1nccn1CC1CCc2c(c3ccccc3n2C)C1=O.Cl (centres unmarked) [ONDANSETRON HYDROCHLORIDE] here?
**A.** Its Z-SCORE is 0.51.

**Q.** CCCCCCCCCCC[C@@H](C[C@@H]1OC(=O)[C@H]1CCCCCC)OC(=O)[C@H](CC(C)C)NC=O [ORLISTAT] was tested. Which Z-SCORE did it give?
**A.** The Z-SCORE was 0.19.

**Q.** How did the Z-SCORE turn out when COc1cc(C)c(Cc2cnc(N)nc2N)cc1OC [ORMETOPRIM] was run?
**A.** The Z-SCORE was 1.63.

**Q.** Which Z-SCORE does the source give for Cc1ncc([N+](=O)[O-])n1CC(O)CCl (centres unmarked) [ORNIDAZOLE] here?
**A.** Its Z-SCORE is 2.22.

**Q.** With O=C(O)CCc1nc(-c2ccccc2)c(-c2ccccc2)o1 [OXAPROZIN] as the molecule, how does the Z-SCORE read?
**A.** Its Z-SCORE is 0.6.

**Q.** For CC[N+](C)(CC)CCOC(=O)C(O)(c1ccccc1)C1CCCCC1 (centres unmarked) [OXYPHENONIUM BROMIDE], which Z-SCORE is on record?
**A.** The Z-SCORE was -0.45.

**Q.** How did the Z-SCORE turn out when C[C@]12C/C(=C/O)C(=O)C[C@@H]1CC[C@@H]1[C@@H]2CC[C@@]2(C)[C@H]1CC[C@]2(C)O [Oxymetholone] was run?
**A.** The Z-SCORE was 1.79.

**Q.** Which Z-SCORE does the source give for Cl.O=C(O)/C=C/c1ccc(Cn2ccnc2)cc1 [Ozagrel hydrochloride] here?
**A.** The Z-SCORE was 0.36.

**Q.** For O=C1c2cccc3c2[C@H](CCC3)CN1[C@@H]1CN2CCC1CC2 [PALONOSETRON HCl], which Z-SCORE is on record?
**A.** Its Z-SCORE is 0.77.

**Q.** How did the Z-SCORE turn out when COc1ccnc(C[S+]([O-])c2nc3cc(OC(F)F)ccc3[n-]2)c1OC.[Na+] (centres unmarked) [PANTOPRAZOLE SODIUM SALT] was run?
**A.** Its Z-SCORE is 1.42.

**Q.** With CCC(=O)[N-]S(=O)(=O)c1ccc(-c2c(-c3ccccc3)noc2C)cc1.[Na+] [PARECOXIB Na] as the molecule, how does the Z-SCORE read?
**A.** The Z-SCORE was -0.3.

**Q.** How did the Z-SCORE turn out when C[C@H]1COc2c(C3(N)CC3)c(F)cc3c(=O)c(C(=O)O)cn1c23 [PAZUFLOXACIN] was run?
**A.** Its Z-SCORE is -0.48.

**Q.** With Cc1sc(N)c(C(=O)c2cccc(C(F)(F)F)c2)c1C [PD 81723] as the molecule, how does the Z-SCORE read?
**A.** The Z-SCORE was 0.13.

**Q.** How did the Z-SCORE turn out when Nc1nc2c(ncn2CCC(CO)CO)c(=O)[nH]1 [PENCICLOVIR] was run?
**A.** Its Z-SCORE is -0.01.

**Q.** With CCCN1C[C@H](CSC)C[C@@H]2c3cccc4[nH]cc(c34)C[C@H]21 [PERGOLIDE MESYLATE] as the molecule, how does the Z-SCORE read?
**A.** Its Z-SCORE is -0.4.

**Q.** For c1ccc2c(c1)Nc1ccccc1S2 [PHENOTHIAZINE], which Z-SCORE is on record?
**A.** Its Z-SCORE is -0.03.

**Q.** With NC(=O)OCCCc1ccccc1 [PHENPROBAMATE] as the molecule, how does the Z-SCORE read?
**A.** Its Z-SCORE is -0.62.

**Q.** How did the Z-SCORE turn out when OC[C@H]1O[C@@H](Oc2cc(O)cc(/C=C/c3ccc(O)cc3)c2)[C@H](O)[C@@H](O)[C@@H]1O [PICEID] was run?
**A.** The Z-SCORE was 0.85.

**Q.** How did the Z-SCORE turn out when CC[C@@H]1C(=O)OC[C@@H]1Cc1cncn1C [PILOCARPINE HYDROCHLORIDE] was run?
**A.** The Z-SCORE was -0.77.

**Q.** With CCc1ccc(CCOc2ccc(CC3SC(=O)NC3=O)cc2)nc1 (centres unmarked) [PIOGLITAZONE HCl] as the molecule, how does the Z-SCORE read?
**A.** The Z-SCORE was -0.64.

**Q.** Which Z-SCORE does the source give for Cc1nc2ccccn2c(=O)c1CCN1CCC(C(=O)c2ccc(F)cc2)CC1 [PIRENPERONE] here?
**A.** The Z-SCORE was 1.82.

**Q.** With CCCN[C@H]1CCc2nc(N)sc2C1.Cl [PRAMIPEXOLE HCl] as the molecule, how does the Z-SCORE read?
**A.** The Z-SCORE was -0.74.

**Q.** For CC[C@H](C)C(=O)O[C@H]1C[C@H](O)C=C2C=C[C@H](C)[C@H](CC[C@@H](O)C[C@@H](O)CC(=O)O)[C@H]21 [PRAVASTATIN Sodium], which Z-SCORE is on record?
**A.** Its Z-SCORE is -0.44.

**Q.** Which Z-SCORE does the source give for CNNCc1ccc(C(=O)NC(C)C)cc1 [PROCARBAZINE HYDROCHLORIDE] here?
**A.** Its Z-SCORE is 0.52.

**Q.** How did the Z-SCORE turn out when COc1cc(/C=C/c2ccc(O)cc2)cc(OC)c1 [PTEROSTILBENE] was run?
**A.** Its Z-SCORE is -0.71.

**Q.** CC(=O)O[C@H]1C[C@@H]2CC[C@@H]3[C@H](CC[C@@]4(C)[C@H]3C[C@H]([N+]3(C)CCCCC3)[C@@H]4OC(C)=O)[C@@]2(C)C[C@@H]1[N+]1(C)CCCCC1 [Pancuronium] was tested. Which Z-SCORE did it give?
**A.** The Z-SCORE was -0.32.

**Q.** How did the Z-SCORE turn out when Fc1ccc([C@@H]2CCNC[C@H]2COc2ccc3c(c2)OCO3)cc1 [Paroxetine, reference compound] was run?
**A.** Its Z-SCORE is 2.09.

**Q.** For NC1=NC(=O)C(c2ccccc2)O1 (centres unmarked) [Pemoline], which Z-SCORE is on record?
**A.** The Z-SCORE was -0.71.

**Q.** For CC(=O)CCCCn1c(=O)c2c(ncn2C)n(C)c1=O [Pentoxifylline], which Z-SCORE is on record?
**A.** The Z-SCORE was -0.43.

Same assay, conditions: compound screen of the NIH Clinical Collection, sheet raw data NCC-003; compounds ranked by Z-score; listed as PAROXETINE

**Q.** How did the Z-SCORE turn out when Fc1ccc([C@@H]2CCNC[C@H]2COc2ccc3c(c2)OCO3)cc1 [Paroxetine, reference compound] was run?
**A.** Its Z-SCORE is 1.3.

Same assay, conditions: compounds at 10 μM, 24 h; PC12 split TEV assay cells co-cultured with Nrg1-expressing PC12 cells; analysed with cellHTS2

**Q.** How did the Z-SCORE turn out when CNCCCN1c2ccccc2CCc2ccccc21 [Norpramin, reference compound] was run?
**A.** Its Z-SCORE is -3.45.

**Q.** How did the Z-SCORE turn out when CCN(CC)CCOC(=O)c1ccc(N)cc1 [Novocain, reference compound] was run?
**A.** Its Z-SCORE is -0.44.

**Q.** CC1COc2c(N3CCN(C)CC3)c(F)cc3c(=O)c(C(=O)O)cn1c23 (centres unmarked) [OFLOXACIN, reference compound] was tested. Which Z-SCORE did it give?
**A.** Its Z-SCORE is 0.8.

**Q.** Which Z-SCORE does the source give for CCN(CC)CC#CCOC(=O)C(O)(c1ccccc1)C1CCCCC1 (centres unmarked) [OXYBUTYNIN CHLORIDE, reference compound] here?
**A.** Its Z-SCORE is -0.59.

**Q.** With Cc1nccn1CC1CCc2c(c3ccccc3n2C)C1=O (centres unmarked) [Ondansetron, reference compound] as the molecule, how does the Z-SCORE read?
**A.** Its Z-SCORE is 0.12.

**Q.** How did the Z-SCORE turn out when CN(C)[C@@H]1C(O)=C(C(N)=O)C(=O)[C@@]2(O)C(O)=C3C(=O)c4c(O)cccc4[C@@](C)(O)[C@H]3[C@H](O)[C@@H]12 [Oxytetracycline hydrochloride, reference compound] was run?
**A.** Its Z-SCORE is 0.67.

**Q.** Which Z-SCORE does the source give for OCCN1CCN(CCCN2c3ccccc3Sc3ccc(Cl)cc32)CC1 [PERPHENAZINE, reference compound] here?
**A.** Its Z-SCORE is 0.23.

**Q.** How did the Z-SCORE turn out when Cc1ccc(N(CC2=NCCN2)c2cccc(O)c2)cc1 [PHENTOLAMINE HCL, reference compound] was run?
**A.** Its Z-SCORE is -1.17.

**Q.** CC(C)NCC(O)COc1cccc2[nH]ccc12 (centres unmarked) [PINDOLOL, reference compound] was tested. Which Z-SCORE did it give?
**A.** Its Z-SCORE is 6.52.

**Q.** With CCN1CCN(C(=O)N[C@@H](C(=O)N[C@@H]2C(=O)N3[C@@H]2SC(C)(C)[C@@H]3C(=O)O)c2ccccc2)C(=O)C1=O [PIPERACILLIN SODIUM SALT, reference compound] as the molecule, how does the Z-SCORE read?
**A.** Its Z-SCORE is 0.05.

**Q.** How did the Z-SCORE turn out when O=C(C1CCCCC1)N1CC(=O)N2CCc3ccccc3C2C1 (centres unmarked) [PRAZIQUANTEL, reference compound] was run?
**A.** Its Z-SCORE is 0.38.

**Q.** For CC(=O)OCC(=O)[C@@]1(O)CC[C@H]2[C@@H]3CCC4=CC(=O)C=C[C@]4(C)[C@H]3[C@@H](O)C[C@@]21C [PREDNISOLONE ACETATE, reference compound], which Z-SCORE is on record?
**A.** The Z-SCORE was -0.58.

**Q.** For CCCNC(C)C(=O)Nc1ccccc1C (centres unmarked) [PRILOCAINE HYDROCHLORIDE, reference compound], which Z-SCORE is on record?
**A.** The Z-SCORE was 0.68.

**Q.** How did the Z-SCORE turn out when C[n+]1ccccc1/C=N/O.[Cl-] [PYRIDINE-2-ALDOXIME METHOCHLORIDE, reference compound] was run?
**A.** Its Z-SCORE is 2.7.

**Q.** Which Z-SCORE does the source give for CNCCC=C1c2ccccc2CCc2ccccc21 [Pamelor, reference compound] here?
**A.** The Z-SCORE was 0.41.

**Q.** With Fc1ccc([C@@H]2CCNC[C@H]2COc2ccc3c(c2)OCO3)cc1 [Paroxetine, reference compound] as the molecule, how does the Z-SCORE read?
**A.** Its Z-SCORE is -0.28.

**Q.** How did the Z-SCORE turn out when CC1(C)S[C@@H]2[C@H](NC(=O)COc3ccccc3)C(=O)N2[C@H]1C(=O)O [Penicillin V, reference compound] was run?
**A.** The Z-SCORE was 0.66.

**Q.** CC1(C)S[C@@H]2[C@H](NC(=O)Cc3ccccc3)C(=O)N2[C@H]1C(=O)O [Pfizerpen, reference compound] was tested. Which Z-SCORE did it give?
**A.** Its Z-SCORE is -0.19.

— paper PMC5653977 (EMBO Molecular Medicine, 2017)
